Reference: patent publication US9408856B2, “Topical steroidal formulations” (Temple University—Of The Commonwealth System of Higher …, priority 2008, dated 2016)

Tested on: dexamethasone-induced thymic and splenic atrophy
Assay: Dexamethasone-induced thymic and splenic atrophy in mice
Format: in vivo, CD-1 mice
Design: Thymus wt / Spleen wt: unit not given here
Details: for Approximate Potency Compared to Fluasterone in Protecting Against DEX-induced Thymic and Splenic Involution: fluasterone = 1
Procedure: Administration of dehydroepiandrosterone (DHEA, 60 mg/kg, s.c.) for three days partially reverse thymic and splenic atrophy induced by a single injection of dexamethasone (1.6 mg/mouse). In this experiment, the efficacy of either 10 mg/kg or 20 mg/kg DHEA administered s.c. versus the effect of 10 mg/kg or 20 mg/kg fluasterone was investigated.
5% Cremophor (polyethoxylated castor oil; Sigma Chemicals)-95% saline vehicle was prepared using 95 mL of sterile 0.9% NaCl (filtered through sterile 0.22 micron filter) and 5 mL of Cremophor. The Cremophor was dissolved by swirling for approximately 5 minutes.
Dexamethasone solutions were prepared by dissolving dexamethasone (Sigma Chemicals) in absolute ethanol. For example, 71.9 mg of dexamethasone was dissolved in 2.9 mL of absolute ethanol. In order to prevent precipitation, the solution was kept on a hotplate between injections.
For the 10 mg/kg suspension, 25.7 mg of DHEA was weighed out, transferred to a glass scintillation vial, and 10.3 mL of the Cremophor-saline vehicle was added. The DHEA suspension was homogenized using a Tissumizer at 80% power for 30 sec. The Tissumizer was rinsed with 70% ethanol prior to homogenization. After the 10 mg/kg DHEA suspension was homogenized the probe was rinsed 2× with 50 mL of absolute ethanol, then with 50 mL of 70% ethanol, and then dried with sterile gauze. For the 20 mg/kg DHEA suspension, 50.9 mg DHEA was suspended in 10.2 mL of Cremophor-saline vehicle.
19.4 mg of fluasterone was weighed out and transferred to a glass scintillation vial. 7.8 mL of Cremophor-saline vehicle was added to the vial and the contents of the vial were homogenized with a Tissumizer as described previously. Prior to preparing the 20 mg/kg fluasterone, the probe was rinsed 2× with 50 mL of absolute ethanol and 1× with 50 mL of 70% ethanol. For the 20 mg/kg suspension, 47.0 mg was weighed out and transferred to a glass scintillation vial. 9.4 mL of Cremophor-saline vehicle was added to the vial and the contents of the vial were homogenized with a Tissumizer as described above.
Female CD-1 mice, 43-45 days old, were obtained from Charles River Laboratories. The mice were housed 5 per cage in plastic shoebox cages with ad libitum access to Purina chow 5015 and water in the Pharmacy CAF with 12 hr of alternating light and darkness.
Prior to the experiment the mice were weighed, separated into 6 groups containing 5 mice each and treated as follows:
Mice were treated s.c. with 0.1 mL of 5% Cremophor-95% saline for three days. On the third day, the mice were also treated s.c. with 1.6 mg of dexamethasone dissolved in 0.06 mL of absolute. ethanol.
Mice were treated s.c. with 0.25 mg of DHEA suspended in 0.1 mL of 5% Cremophor-95% saline for three days. On the third day, the mice were also treated s.c. with 1.6 mg of dexamethasone dissolved in 0.06 mL of absolute ethanol.
Mice were treated s.c. with 0.5 mg of DHEA suspended in 0.1 mL of 5% Cremophor-95% saline for three days. On the third day, the mice were also treated s.c. with 1.6 mg of dexamethasone dissolved in 0.06 mL of absolute ethanol.
Mice were treated s.c. with 0.25 mg of fluasterone suspended in 0.1 mL of 5% Cremophor-95% saline for three days. On the third day, the mice were also treated s.c. with 1.6 mg of dexamethasone dissolved in 0.06 mL of absolute ethanol.
Mice were treated s.c. with 0.5 mg of fluasterone suspended in 0.1 mL of 5% Cremophor-95% saline for three days. On the third day, the mice were also treated s.c. with 1.6 mg of dexamethasone dissolved in 0.06 mL of absolute ethanol.
All s.c. injections were made in the nape. All mice were lightly anesthetized while the s.c. injections were done.
Twenty-four hours after dexamethasone treatment, the mice were euthanized by an overdose of isoflurane. The spleen and thymus were removed, cleaned of any adventitia, rinsed, blotted on filter paper, and weighed. […]

[1] = Table 15, steroid 10 mg/kg in Cremophor-saline + dexamethasone
[2] = Table 15, steroid 20 mg/kg in Cremophor-saline + dexamethasone
[3] = Table 16, steroid 5 mg/kg + dexamethasone
[4] = Table 16, steroid 10 mg/kg + dexamethasone
[5] = Table 16, steroid 20 mg/kg + dexamethasone
[6] = Table 16, steroid 60 mg/kg + dexamethasone

SMILES: C[C@H]1CC[C@@]2(C)C(=CC[C@@H]3[C@@H]2CC[C@]2(C)C(=O)CC[C@@H]32)C1 [3β-methyl-5-androsten-17-one]
- Spleen wt [1]: 70.7 + 4.5
- Spleen wt/BW [1]: 2.9 + 0.2
- Thymus wt [1]: 61.9 + 3.9
- Thymus wt/BW [1]: 2.6 + 0.2
- Spleen wt [2]: 67.0 ± 11.3
- Spleen wt/BW [2]: 2.6 ± 0.2
- Thymus wt [2]: 62.2 ± 4.1
- Thymus wt/BW [2]: 2.4 ± 0.2
- Approximate Potency Compared to Fluasterone in Protecting Against DEX-induced Thymic and Splenic Involution (mice): slightly less active
- rank of activity among steroids tested against DEX-induced thymic and splenic involution (mice): almost as great potency

SMILES: C[C@H]1CC[C@@]2(C)C(=CC[C@@H]3[C@@H]2CC[C@]2(C)C(=O)[C@H](Cl)C[C@@H]32)C1 [3β-methyl-16α-chloro-5-androsten-17-one]
- Spleen wt [1]: 42.3 ± 5.6
- Spleen wt/BW [1]: 1.6 ± 0.2
- Thymus wt [1]: 31.7 ± 4.1
- Thymus wt/BW [1]: 1.2 ± 0.1
- Spleen wt [2]: 38.6 ± 6.3
- Spleen wt/BW [2]: 1.2 ± 0.3
- Thymus wt [2]: 28.6 ± 3.2
- Thymus wt/BW [2]: 1.1 ± 0.1
- Approximate Potency Compared to Fluasterone in Protecting Against DEX-induced Thymic and Splenic Involution (mice): about ⅙ or considerably

SMILES: C[C@H]1CC[C@@]2(C)C(=CC[C@@H]3[C@@H]2CC[C@]2(C)C(=O)[C@H](F)C[C@@H]32)C1 [3β-methyl-16α-fluoro-5-androsten-17-one]
- Spleen wt [1]: 50.9 ± 7.5
- Spleen wt/BW [1]: 2.0 ± 0.3
- Thymus wt [1]: 43.8 ± 3.0
- Thymus wt/BW [1]: 1.7 ± 0.1
- Spleen wt [2]: 55.0 ± 4.6
- Spleen wt/BW [2]: 2.2 ± 0.1
- Thymus wt [2]: 55.8 ± 5.4
- Thymus wt/BW [2]: 2.2 ± 0.2
- Approximate Potency Compared to Fluasterone in Protecting Against DEX-induced Thymic and Splenic Involution (mice): <½

SMILES: C[C@H]1CC[C@@]2(C)C(=CC[C@@H]3[C@@H]2CC[C@]2(C)C(=O)[C@H](C)C[C@@H]32)C1 [3β-methyl-16α-methyl-5-androsten-17-one]
- recovery from anesthesia (two mice of the group) (20 mg/kg group, Example 9): never recovered from anesthesia
- Spleen wt [1]: 44.9 + 9.2
- Spleen wt/BW [1]: 1.7 + 0.3
- Thymus wt [1]: 42.6 + 4.7
- Thymus wt/BW [1]: 1.7 + 0.2
- Spleen wt [2]: 44.4 ± 8.7
- Spleen wt/BW [2]: 1.8 ± 0.3
- Thymus wt [2]: 37.7 ± 4.0
- Thymus wt/BW [2]: 1.5 ± 0.2
- Approximate Potency Compared to Fluasterone in Protecting Against DEX-induced Thymic and Splenic Involution (mice): about ⅙

SMILES: C[C@]12CCCCC1=C[C@@H](O)[C@@H]1[C@@H]2CC[C@]2(C)C(=O)[C@H](F)C[C@@H]12 [7α-hydroxyfluasterone, 7α-hydroxy-16α-fluoro-5-androsten-17-one]
- Body Weight [3]: 24.5 ± 1.0
- Spleen wt [3]: 46.3 ± 11.1
- Spleen wt/BW [3]: 1.8 ± 0.5
- Thymus wt [3]: 43.8 ± 6.9
- Thymus wt/BW [3]: 1.8 ± 0.3
- Body Weight [4]: 24.0 ± 1.3
- Spleen wt [4]: 50.9 ± 12.5
- Spleen wt/BW [4]: 2.1 ± 0.5
- Thymus wt [4]: 54.8 ± 12.1
- Thymus wt/BW [4]: 2.3 ± 0.4
- Approximate Potency Compared to Fluasterone in Protecting Against DEX-induced Thymic and Splenic Involution (mice): about ½

SMILES: C[C@]12CC[C@H]3[C@@H](CC=C4CCCC[C@@]43C)[C@@H]1C[C@@H](F)[C@@H]2O [16α-fluoro-5-androsten-17β-ol]
- Body Weight [5]: 25.1 ± 1.0
- Spleen wt [5]: 52.3 ± 10.8
- Spleen wt/BW [5]: 2.1 ± 0.4
- Thymus wt [5]: 42.3 ± 4.6
- Thymus wt/BW [5]: 1.7 ± 0.2
- Body Weight [6]: 25.7 ± 1.5
- Spleen wt [6]: 45.9 ± 5.1
- Spleen wt/BW [6]: 1.8 ± 0.2
- Thymus wt [6]: 45.1 ± 5.1
- Thymus wt/BW [6]: 1.8 ± 0.2
- Approximate Potency Compared to Fluasterone in Protecting Against DEX-induced Thymic and Splenic Involution (mice): < 1/12

SMILES: C[C@]12CCCCC1=CC[C@@H]1[C@@H]2CC[C@]2(C)C(=O)[C@H](O)C[C@@H]12 [16α-hydroxy-5-androsten-17-one]
- Body Weight [5]: 25.4 ± 1.5
- Spleen wt [5]: 46.6 ± 7.5
- Spleen wt/BW [5]: 1.8 ± 0.2
- Thymus wt [5]: 41.2 ± 1.3
- Thymus wt/BW [5]: 1.6 ± 0.1
- Body Weight [6]: 23.8 ± 0.8
- Spleen wt [6]: 53.6 ± 6.3
- Spleen wt/BW [6]: 2.2 ± 0.3
- Thymus wt [6]: 45.9 ± 3.1
- Thymus wt/BW [6]: 1.9 ± 0.2
- Approximate Potency Compared to Fluasterone in Protecting Against DEX-induced Thymic and Splenic Involution (mice): about 1/12
